# Assay results published in paper PMC9495348, “Polyfunctionalized α-Phenyl-tert-butyl(benzyl)nitrones: Multifunctional Antioxidants for Stroke Treatment” (Antioxidants, 2022).
# How the values were obtained:
# soybean lipoxygenase = target: T1, soybean lipoxygenase (Glycine max, UniProt P08170); assay: In vitro inhibition of soybean LOX; type: biochemical; conditions: for IC50: soybean LOX, sodium linoleate 0.1 mM
# T1 construct: purchased Aldrich Chemical Co. Milwaukee, WI, (USA)
# T1 sequence (P08170 1-839): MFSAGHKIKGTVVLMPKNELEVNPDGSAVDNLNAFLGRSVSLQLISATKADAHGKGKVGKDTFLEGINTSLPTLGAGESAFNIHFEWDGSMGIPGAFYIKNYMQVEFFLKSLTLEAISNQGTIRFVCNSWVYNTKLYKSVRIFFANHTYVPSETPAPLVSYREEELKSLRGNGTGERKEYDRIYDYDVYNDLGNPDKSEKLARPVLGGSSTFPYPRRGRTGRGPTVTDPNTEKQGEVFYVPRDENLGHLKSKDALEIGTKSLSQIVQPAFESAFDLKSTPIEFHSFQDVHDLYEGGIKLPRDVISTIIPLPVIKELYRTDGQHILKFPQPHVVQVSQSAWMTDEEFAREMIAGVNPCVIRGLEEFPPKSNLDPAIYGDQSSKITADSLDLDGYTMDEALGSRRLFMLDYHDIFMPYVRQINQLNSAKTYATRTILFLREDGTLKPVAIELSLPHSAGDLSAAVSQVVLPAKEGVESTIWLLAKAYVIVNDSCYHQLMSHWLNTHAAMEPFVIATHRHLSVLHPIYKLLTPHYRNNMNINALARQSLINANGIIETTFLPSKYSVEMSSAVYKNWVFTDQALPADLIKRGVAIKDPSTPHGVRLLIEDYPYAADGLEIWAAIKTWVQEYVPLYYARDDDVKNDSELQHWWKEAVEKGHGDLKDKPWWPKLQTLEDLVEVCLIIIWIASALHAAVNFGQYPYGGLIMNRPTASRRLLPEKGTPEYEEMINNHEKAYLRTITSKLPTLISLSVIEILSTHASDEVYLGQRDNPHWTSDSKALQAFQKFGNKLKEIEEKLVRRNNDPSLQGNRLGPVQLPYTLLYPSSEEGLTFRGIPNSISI
# Experimental: The in vitro study was performed as previously described. The compounds were incubated at room temperature with sodium linoleate (0.1 mM) and 0.2 mL of soybean lipoxygenase solution (1/9 × 10^–4 w/v in phosphate buffer saline). The method was based on the conversion of sodium linoleate to 13-hydroperoxylinoleic acid, which was detected by measuring absorbance at 234 nm. […] To determine the IC50 values, serial dilutions of compounds were used. Blank determination served as a negative control.
# [1] = ABTS+ decolorization assay in ethanolic solution; conditions: compounds assayed at 100 µM; n.a. = not active
# [2] = Competition of the tested compounds with DMSO for hydroxyl radicals; conditions: compounds assayed at 100 µM; n.a. = not active; no = no activity
# [3] = Inhibition of linoleic acid peroxidation (ILPO) induced by AAPH; conditions: compounds assayed at 100 µM; n.a. = not active
# [4] = DPPH radical-scavenging assay; conditions: compounds assayed at 100 µM, DPPH 70 µM, 90 min; no = no activity
# Experimental: The assay was performed as previously described by incubating compounds at a concentration of 100 µM in the presence of 2,2-diphenyl-1-picrylhydrazyl radical (DPPH, 70 µM) in methanol for 90 min, protected from sun light. The absorbance at 517 nm was then determined using a Synergy™ H4 microplate reader (BioTek Instruments, Inc., Winooski, VT, USA). The experiments were performed in triplicate, and the blank (compound without DPPH) was substracted. The percentage of DPPH free radicals was calculated using the equation DPPH free radicals (%) = ((A0 − A1)/A0) × 100, where A0 is the absorbance of MeOH and A1 is the absorbance of the compound. Trolox and resveratrol were used as positive controls.
# [5] = tested on: SH-SY5Y neuroblastoma cells; assay: Neuroprotection against okadaic acid, MTT cell viability; type: cell-based; conditions: okadaic acid 20 nM for 20 h, compounds 0.3–10 µM
# Aβ1–42 = target: T2, Aβ1–42 (Homo sapiens, UniProt P05067); assay: Inhibition of Aβ1–42 aggregation, Thioflavin-T assay; type: biochemical; conditions: 10 µM compound and 1.5 µM Aβ1–42, ThT assay
# T2 construct: HFIP-pretreated Aβ1–42 peptide Merck Millipore, Darmstadt, Germany; purchased Merck Millipore, Darmstadt, Germany
# T2 sequence (P05067 672-713): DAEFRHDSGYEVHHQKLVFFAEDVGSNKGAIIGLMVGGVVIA
# Experimental: Thioflavin-T (ThT) assay was performed to investigate the effect of the compounds on the aggregation of Aβ1–42 (HFIP-pretreated Aβ1–42 peptide Merck Millipore, Darmstadt, Germany). Prior to the incubations, 1 mM Aβ1–42 peptide stock solution in DMSO was diluted in 150 mM HEPES buffer (pH = 7.4, 150 mM NaCl) to obtain a concentration of 7.5 μM. Subsequently, 20 µL of Aβ1–42 ([…]) was mixed with the compounds (10 µM, final concentration) on black-walled 96-well plates and diluted with ThT solution (14.3 μM stock solution in HEPES-buffered solution; 10 μM final concentration). The final volume of the mixture was 100 μL, and the DMSO concentration was always 3% (v/v). Each sample was prepared in four technical replicates. ThT fluorescence (λex = 440 nm, λem = 490 nm) was measured using a microplate reader (Synergy™ H4, BioTek Instruments, Inc., Winooski, VT, USA) for 36–48 h. Inhibition of Aβ1–42 aggregation was expressed as the percent inhibition (% inh = (1 − Fi/F0) × 100), where Fi is the increase in fluorescence of compound-treated Aβ1–42, and F0 is the increase in fluorescence of non-treated Aβ1–42.
# [6] = compounds assayed at 100 µM, n.a. = not active, no = no activity under the experimental conditions
Structure (SMILES),inhibition at 100 µM (soybean lipoxygenase; [6]) [%],ABTS+ (%) [1] [%],OH Scav. Capacity (%) [2],ILPO (%) [3] [%],IC50 (soybean lipoxygenase) [µM],DPPH [4],neuroprotective effect (augmented OA-reduced cell viability) [5],inhibition at 10 µM (Aβ1–42) [%],LOX Inhibition (%) (soybean lipoxygenase; [6])
"C#CCN1CCN(CCCOc2ccccc2/C=[N+](\[O-])C(C)(C)C)CC1 [nitrone 12, (Z)-N-tert-Butyl-1-(2-(3-(4-(prop-2-yn-1-yl)piperazin-1-yl)propoxy)phenyl) methanimine oxide]",25,13,9.8%,31,,,,,
"[O-]/[N+](=C\c1ccc(OCCCN2CCCCC2)cc1)Cc1ccccc1 [nitrone 1, (Z)-N-Benzyl-1-(4-(3-(piperidin-1-yl)propoxy)phenyl)methanimine oxide]",,27,7%,,60,0,statistically significant at 10 µM,42.2 ± 5.7,
"CC(C)(C)/[N+]([O-])=C/c1cccc(OCCCN2CCCCC2)c1 [nitrone 4, (Z)-N-tert-Butyl-1-(3-(3-(piperidin-1-yl)propoxy)phenyl)methanimine oxide]",37,23,54%,45,,0,,,
"C#CCN1CCN(CCCOc2cccc(/C=[N+](/[O-])Cc3ccccc3)c2)CC1 [nitrone 9, (E)-N-Benzyl-1-(3-(3-(4-(prop-2-yn-1-yl)piperazin-1-yl)propoxy)phenyl)methanimine oxide]",,,81%,,100,1,,,
"[O-]/[N+](=C\c1ccccc1OCCCN1CCCCC1)Cc1ccccc1 [nitrone 5, (Z)-N-Benzyl-1-(2-(3-(piperidin-1-yl)propoxy)phenyl)methanimine oxide]",,19,9%,,10,0,,,
"C#CCN1CCN(CCCOc2ccc(/C=[N+](\[O-])Cc3ccccc3)cc2)CC1 [nitrone 7, (Z)-N-Benzyl-1-(4-(3-(4-(prop-2-yn-1-yl)piperazin-1-yl)propoxy)phenyl) methanimine oxide]",27.2,28,,,,0,,,
"C#CCN1CCN(CCCOc2ccc(/C=[N+](\[O-])C(C)(C)C)cc2)CC1 [nitrone 8, (Z)-N-tert-Butyl-1-(4-(3-(4-(prop-2-yn-1-yl)piperazin-1-yl)propoxy)phenyl) methanimine oxide]",23.3,10,78%,,,0,,,
"CC(C)(C)/[N+]([O-])=C/c1ccc(OCCCN2CCCCC2)cc1 [nitrone 2, (Z)-N-tert-Butyl-1-(4-(3-(piperidin-1-yl)propoxy)phenyl)methanimine oxide]",,,54%,,,0,,,
"CC(C)(C)/[N+]([O-])=C/c1ccccc1 [PBN, α-phenyl-N-tert-butylnitrone, reference compound]",23,5,no,11,,no,,,
"C#CCN1CCN(CCCOc2cccc(/C=[N+](\[O-])C(C)(C)C)c2)CC1 [nitrone 10, (Z)-N-tert-Butyl-1-(3-(3-(4-(prop-2-yn-1-yl)piperazin-1-yl)propoxy)phenyl) methanimine oxide]",,13,20%,31,,0,,,no
"Cc1c(C)c2c(c(C)c1O)CCC(C)(C(=O)O)O2 (centres unmarked) [Trolox, reference compound]",,91,88%,93,,,,,
"CC(C)(C)/[N+]([O-])=C/c1ccccc1OCCCN1CCCCC1 [nitrone 6, (Z)-N-tert-Butyl-1-(2-(3-(piperidin-1-yl)propoxy)phenyl)methanimine oxide]",39,,13%,,,0,,,
"[O-]/[N+](=C\c1cccc(OCCCN2CCCCC2)c1)Cc1ccccc1 [nitrone 3, (Z)-N-Benzyl-1-(3-(3-(piperidin-1-yl)propoxy)phenyl)methanimine oxide]",,31,,29,,2,,,
